The source of these data is patent publication US20230181546A1, “TREATMENT OF RESPIRATORY DISEASES WITH AMINO ACID COMPOUNDS” (Pliant Therapeutics, Inc., priority 2020, published 2023).

recombinant human integrin αVβ6, sequence (P06756 31-992 limits assumed): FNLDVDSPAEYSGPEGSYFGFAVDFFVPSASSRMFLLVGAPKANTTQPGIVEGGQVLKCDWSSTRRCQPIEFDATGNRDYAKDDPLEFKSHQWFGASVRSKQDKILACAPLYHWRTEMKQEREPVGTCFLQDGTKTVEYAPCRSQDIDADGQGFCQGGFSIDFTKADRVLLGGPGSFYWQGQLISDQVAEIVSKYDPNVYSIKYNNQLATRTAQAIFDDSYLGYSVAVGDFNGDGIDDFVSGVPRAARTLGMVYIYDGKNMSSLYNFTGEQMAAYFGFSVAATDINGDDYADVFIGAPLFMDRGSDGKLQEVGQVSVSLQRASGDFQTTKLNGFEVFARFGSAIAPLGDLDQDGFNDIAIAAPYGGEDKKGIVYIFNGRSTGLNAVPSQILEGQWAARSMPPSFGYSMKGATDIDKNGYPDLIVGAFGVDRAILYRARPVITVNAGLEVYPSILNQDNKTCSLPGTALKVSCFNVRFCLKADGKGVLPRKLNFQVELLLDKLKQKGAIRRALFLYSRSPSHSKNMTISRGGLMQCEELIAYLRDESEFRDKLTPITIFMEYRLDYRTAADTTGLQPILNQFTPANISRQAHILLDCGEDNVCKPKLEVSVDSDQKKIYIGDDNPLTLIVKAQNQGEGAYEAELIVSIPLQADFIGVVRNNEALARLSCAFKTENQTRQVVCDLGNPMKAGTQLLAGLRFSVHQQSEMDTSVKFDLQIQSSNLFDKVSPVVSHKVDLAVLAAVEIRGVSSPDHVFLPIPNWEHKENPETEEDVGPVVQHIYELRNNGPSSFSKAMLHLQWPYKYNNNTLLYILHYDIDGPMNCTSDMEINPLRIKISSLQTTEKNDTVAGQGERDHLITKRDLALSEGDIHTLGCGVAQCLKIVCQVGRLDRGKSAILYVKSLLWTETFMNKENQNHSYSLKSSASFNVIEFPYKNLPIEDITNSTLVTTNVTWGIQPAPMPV
recombinant human integrin αVβ6, sequence (P18564 22-707 limits assumed): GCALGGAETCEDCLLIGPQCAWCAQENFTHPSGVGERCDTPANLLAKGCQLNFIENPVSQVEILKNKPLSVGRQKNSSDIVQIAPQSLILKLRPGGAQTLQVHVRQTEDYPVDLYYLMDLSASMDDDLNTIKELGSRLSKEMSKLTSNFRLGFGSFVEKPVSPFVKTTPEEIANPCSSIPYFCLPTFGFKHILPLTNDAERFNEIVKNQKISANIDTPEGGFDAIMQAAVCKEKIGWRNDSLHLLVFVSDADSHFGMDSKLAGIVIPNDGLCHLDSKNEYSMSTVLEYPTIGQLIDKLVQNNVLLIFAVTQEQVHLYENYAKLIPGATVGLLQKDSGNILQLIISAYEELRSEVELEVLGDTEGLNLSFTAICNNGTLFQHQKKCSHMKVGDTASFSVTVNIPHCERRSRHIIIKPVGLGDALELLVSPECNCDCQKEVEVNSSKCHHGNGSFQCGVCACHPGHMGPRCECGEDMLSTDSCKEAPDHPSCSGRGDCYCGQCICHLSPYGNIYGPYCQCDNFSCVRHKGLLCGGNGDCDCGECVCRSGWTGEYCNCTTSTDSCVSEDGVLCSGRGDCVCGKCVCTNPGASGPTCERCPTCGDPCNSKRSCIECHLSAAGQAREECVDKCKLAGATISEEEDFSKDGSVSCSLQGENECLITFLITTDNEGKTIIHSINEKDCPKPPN

The experiment concerns the target recombinant human integrin αVβ6 (Homo sapiens, UniProt P06756+P18564). In words: Solid phase integrin αVβ6 binding assay (Examples B1, B2). The settings on record: TGFβ1 LAP binding, values given in four ranges, read-out: αvβ6 Inhibition IC50 (nM) - range. As for the experimental part: (§1) Microplates were coated with recombinant human integrin αVβ6 (2 μg/mL) in PBS (100 μL/well 25° C., overnight). The coating solution was removed, washed with wash buffer (0.05% Tween 20: 0.5 mM MnCl2; in 1×TBS). The plate was blocked with 200 μL/well of Block Buffer (1% BSA; 5% sucrose; 0.5 mM MnCl2; in 1×TBS) at 37° C. for 2 h. Dilutions of testing compounds and recombinant TGFβ1 LAP (0.67 μg/mL) in binding buffer (0.05% BSA; 2.5% sucrose; 0.5 mM MnCl2; in 1×TBS) were added. The plate was incubated for 2 hours at 25° C., washed, and incubated for 1 hour with Biotin-Anti-hLAP. Bound antibody was detected by peroxidase-conjugated streptavidin. The IC50 values for testing compounds were calculated by a four-parameter logistic regression.
The compounds tested were compound samples prepared according to procedures described in the Synthetic Examples section, with the stereochemical purity as indicated in the Examples.
as §1, with “A third series of exemplary compounds was selected for testing in the solid phase integrin αVβ6 binding assay. The compounds tested were compound samples prepared according to procedures described in the Synthetic Examples section, with the stereochemical purity as indicated in the Examples. As in Example B1, microplates” for “Microplates”, “20;” for “20:”
One may read the IC50 as the point on the concentration scale where inhibition reaches its midpoint. Consider `COCCN(CCCCc1ccc2c(n1)NCCC2)CC[C@H](Nc1cc(C(F)F)ncn1)C(=O)O` [Compound 23, (S)-2-((6-(difluoromethyl)pyrimidin-4-yl)amino)-4-((2-methoxyethyl) (4-(5,6,7,8-tetrahydro-1,8-naphthyridin-2-yl)butyl)amino) butanoic acid], for which the IC50 is below 50 nM. Regarding `O=C(O)[C@H](CCN(CCCCc1ccc2c(n1)NCCC2)CCOC(F)F)Nc1ncnc2ccccc12` [Compound 35, (S)-4-((2-(difluoromethoxy)ethyl) (4-(5,6,7,8-tetrahydro-1,8-naphthyridin-2-yl)butyl)amino)-2-(quinazolin-4-ylamino) butanoic acid], the IC50 is below 50 nM.

`Cc1ncccc1OCCN(CCCCc1ccc2c(n1)NCCC2)CC[C@H](Nc1ncnc2cccnc12)C(=O)O` [Compound 54, (S)-4-((2-((2-methylpyridin-3-yl)oxy)ethyl) (4-(5,6,7,8-tetrahydro-1,8-naphthyridin-2-yl)butyl)amino)-2-(pyrido[3,2-d]pyrimidin-4-ylamino) butanoic acid]: the IC50 is below 50 nM.

As for `O=C(O)[C@H](CCN(CCCCc1ccc2c(n1)NCCC2)CC(F)F)Nc1ccncn1` [Compound 120, (S)-4-((2,2-difluoroethyl) (4-(5,6,7,8-tetrahydro-1,8-naphthyridin-2-yl)butyl)amino)-2-(pyrimidin-4-ylamino) butanoic acid], the IC50 is above 1000 nM. For the compound `O=C(O)[C@H](CCN(CCCCc1ccc2c(n1)NCCC2)CCOc1ccccc1)Nc1ncc(Br)cn1` [Compound 83, (S)-2-((5-bromopyrimidin-2-yl)amino)-4-((2-phenoxyethyl) (4-(5,6,7,8-tetrahydro-1,8-naphthyridin-2-yl)butyl)amino) butanoic acid], the half-inhibitory concentration (IC50) is below 50 nM. Consider `CO[C@H](C)CN(CCCCc1ccc2c(n1)NCCC2)CC[C@H](Nc1ncc(Br)cn1)C(=O)O` [Compound 70, (S)-2-((5-bromopyrimidin-2-yl)amino)-4-(((R)-2-methoxypropyl) (4-(5,6,7,8-tetrahydro-1,8-naphthyridin-2-yl)butyl)amino) butanoic acid], for which the IC50 was below 50 nM. Regarding `O=C(O)[C@H](CCN(CCCCc1ccc2c(n1)NCCC2)CCOc1ccccc1)Nc1ccnc(C(F)(F)F)n1` [Compound 92, (S)-4-((2-phenoxyethyl) (4-(5,6,7,8-tetrahydro-1,8-naphthyridin-2-yl)butyl)amino)-2-((2-(rifluoromethyl)pyrimidin-4-yl)amino) butanoic acid], the IC50 is below 50 nM.
